# According to patent publication US9446039B2, “Aminoheteroaryl compounds as MTH1 inhibitors” (CEMM—FORSCHUNGSZENTRUM FÜR MOLEKULARE MEDIZIN GMBH, priority 2012, dated 2016):
# Experiments:
# Format in all cases: binding
# [1] = target: SW480 colon carcinoma cells lysate proteins (Homo sapiens, UniProt Q92598); conditions: PreyGene HSPH1
# [2] = target: SW480 colon carcinoma cells lysate proteins (Homo sapiens, UniProt P68366); conditions: PreyGene TUBA4A; SW480 cells
# [3] = target: SW480 colon carcinoma cells lysate proteins (Homo sapiens, UniProt Q9Y265); conditions: PreyGene RUVBL1
# Chain of SW480 colon carcinoma cells lysate proteins (Homo sapiens, UniProt Q9Y265) (Q9Y265 whole entry): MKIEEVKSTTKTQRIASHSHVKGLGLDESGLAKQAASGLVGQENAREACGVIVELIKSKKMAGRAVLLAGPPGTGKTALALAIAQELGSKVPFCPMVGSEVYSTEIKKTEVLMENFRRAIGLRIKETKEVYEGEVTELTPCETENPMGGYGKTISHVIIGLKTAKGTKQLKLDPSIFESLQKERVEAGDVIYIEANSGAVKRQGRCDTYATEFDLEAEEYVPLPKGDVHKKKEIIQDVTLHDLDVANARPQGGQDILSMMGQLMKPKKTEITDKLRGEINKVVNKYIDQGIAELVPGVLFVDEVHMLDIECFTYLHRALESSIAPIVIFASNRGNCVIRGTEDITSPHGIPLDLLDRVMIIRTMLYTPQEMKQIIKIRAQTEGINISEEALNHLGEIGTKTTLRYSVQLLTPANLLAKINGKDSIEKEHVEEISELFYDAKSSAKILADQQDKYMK
# [4] = target: SW480 colon carcinoma cells lysate proteins (Homo sapiens, UniProt O43707); conditions: PreyGene ACTN4
# Chain of SW480 colon carcinoma cells lysate proteins (Homo sapiens, UniProt O43707) (O43707 whole entry): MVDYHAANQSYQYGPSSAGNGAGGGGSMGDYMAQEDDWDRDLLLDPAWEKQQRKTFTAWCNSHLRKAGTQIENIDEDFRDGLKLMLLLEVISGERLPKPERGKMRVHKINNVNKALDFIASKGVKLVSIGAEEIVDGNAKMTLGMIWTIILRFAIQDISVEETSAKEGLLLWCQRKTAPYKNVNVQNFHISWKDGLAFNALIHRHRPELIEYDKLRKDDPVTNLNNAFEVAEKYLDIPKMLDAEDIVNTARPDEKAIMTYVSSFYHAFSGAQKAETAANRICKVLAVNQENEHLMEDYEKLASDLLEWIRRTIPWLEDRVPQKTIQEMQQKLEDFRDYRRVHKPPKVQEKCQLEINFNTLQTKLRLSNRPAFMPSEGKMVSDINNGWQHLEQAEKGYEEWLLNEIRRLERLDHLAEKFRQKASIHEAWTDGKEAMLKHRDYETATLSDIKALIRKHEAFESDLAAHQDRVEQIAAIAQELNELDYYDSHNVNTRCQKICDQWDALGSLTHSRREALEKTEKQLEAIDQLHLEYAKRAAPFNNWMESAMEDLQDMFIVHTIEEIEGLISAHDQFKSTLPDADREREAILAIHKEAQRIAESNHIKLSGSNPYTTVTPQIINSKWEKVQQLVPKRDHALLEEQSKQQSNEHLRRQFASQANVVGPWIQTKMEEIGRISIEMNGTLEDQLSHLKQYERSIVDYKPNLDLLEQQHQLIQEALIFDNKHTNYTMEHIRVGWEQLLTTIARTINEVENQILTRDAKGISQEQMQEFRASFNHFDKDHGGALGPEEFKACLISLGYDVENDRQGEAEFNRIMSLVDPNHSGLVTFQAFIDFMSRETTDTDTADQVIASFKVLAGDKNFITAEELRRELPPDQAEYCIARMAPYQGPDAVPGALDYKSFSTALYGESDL
# [5] = target: SW480 colon carcinoma cells lysate proteins (Homo sapiens, UniProt P07858); conditions: PreyGene CTSB
# [6] = target: T1, SW480 colon carcinoma cells lysate proteins (Homo sapiens, UniProt P26639); conditions: PreyGene TARS
# T1 sequence (P26639 1-723): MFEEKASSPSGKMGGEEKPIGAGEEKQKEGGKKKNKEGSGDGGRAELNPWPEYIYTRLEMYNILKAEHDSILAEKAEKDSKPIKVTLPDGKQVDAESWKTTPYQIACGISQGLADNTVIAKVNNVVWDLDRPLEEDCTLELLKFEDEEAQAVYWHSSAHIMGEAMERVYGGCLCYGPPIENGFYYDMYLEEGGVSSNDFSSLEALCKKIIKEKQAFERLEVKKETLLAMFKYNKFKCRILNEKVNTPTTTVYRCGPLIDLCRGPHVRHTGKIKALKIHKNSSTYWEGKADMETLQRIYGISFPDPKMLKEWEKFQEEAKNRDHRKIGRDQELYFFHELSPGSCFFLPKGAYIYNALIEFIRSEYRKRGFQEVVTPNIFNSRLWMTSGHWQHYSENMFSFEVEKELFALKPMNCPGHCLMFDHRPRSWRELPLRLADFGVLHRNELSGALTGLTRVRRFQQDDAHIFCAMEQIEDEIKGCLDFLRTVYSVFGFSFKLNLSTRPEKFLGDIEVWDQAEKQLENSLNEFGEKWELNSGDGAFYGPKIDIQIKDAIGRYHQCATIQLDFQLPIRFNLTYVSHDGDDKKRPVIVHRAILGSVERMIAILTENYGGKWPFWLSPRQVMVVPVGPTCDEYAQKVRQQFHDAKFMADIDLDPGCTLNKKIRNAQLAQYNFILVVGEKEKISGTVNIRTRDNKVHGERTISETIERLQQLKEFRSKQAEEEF
# [7] = target: T2, SW480 colon carcinoma cells lysate proteins (Homo sapiens, UniProt P53618); conditions: PreyGene COPB1
# T2 sequence (P53618 1-953): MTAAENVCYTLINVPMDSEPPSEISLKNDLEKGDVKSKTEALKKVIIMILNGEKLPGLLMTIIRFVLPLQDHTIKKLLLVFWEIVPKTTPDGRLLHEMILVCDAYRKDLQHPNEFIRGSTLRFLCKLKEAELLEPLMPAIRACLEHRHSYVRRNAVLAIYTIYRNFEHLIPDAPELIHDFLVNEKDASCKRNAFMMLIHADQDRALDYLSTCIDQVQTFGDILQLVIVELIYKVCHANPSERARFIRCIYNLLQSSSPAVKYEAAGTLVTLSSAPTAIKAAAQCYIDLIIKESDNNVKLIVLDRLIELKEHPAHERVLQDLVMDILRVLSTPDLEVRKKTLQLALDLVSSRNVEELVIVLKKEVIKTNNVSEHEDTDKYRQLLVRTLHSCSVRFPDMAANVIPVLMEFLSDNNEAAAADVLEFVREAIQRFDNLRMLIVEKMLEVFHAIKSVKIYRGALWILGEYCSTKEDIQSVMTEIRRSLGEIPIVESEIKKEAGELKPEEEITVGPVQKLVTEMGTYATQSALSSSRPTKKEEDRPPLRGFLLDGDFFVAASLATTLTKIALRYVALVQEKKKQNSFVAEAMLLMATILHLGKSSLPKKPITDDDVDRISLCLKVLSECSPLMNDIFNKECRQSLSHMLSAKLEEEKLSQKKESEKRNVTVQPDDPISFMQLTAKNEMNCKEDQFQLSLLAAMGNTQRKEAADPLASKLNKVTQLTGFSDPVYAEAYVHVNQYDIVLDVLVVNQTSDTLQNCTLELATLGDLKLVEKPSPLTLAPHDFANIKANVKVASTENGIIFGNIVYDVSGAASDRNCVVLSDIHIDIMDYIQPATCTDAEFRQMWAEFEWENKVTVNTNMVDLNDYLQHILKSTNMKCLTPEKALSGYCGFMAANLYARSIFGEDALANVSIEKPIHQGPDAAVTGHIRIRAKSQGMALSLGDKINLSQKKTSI
# [8] = target: T3, SW480 colon carcinoma cells lysate proteins (Homo sapiens, UniProt Q04837); conditions: PreyGene SSBP1; SW480 cells
# T3 sequence (Q04837 17-148): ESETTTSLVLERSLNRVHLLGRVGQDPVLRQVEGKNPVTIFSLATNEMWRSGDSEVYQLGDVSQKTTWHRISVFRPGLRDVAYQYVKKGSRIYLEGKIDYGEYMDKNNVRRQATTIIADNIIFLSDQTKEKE
# Chain of SW480 colon carcinoma cells lysate proteins (Homo sapiens, UniProt P68366) (P68366 whole entry): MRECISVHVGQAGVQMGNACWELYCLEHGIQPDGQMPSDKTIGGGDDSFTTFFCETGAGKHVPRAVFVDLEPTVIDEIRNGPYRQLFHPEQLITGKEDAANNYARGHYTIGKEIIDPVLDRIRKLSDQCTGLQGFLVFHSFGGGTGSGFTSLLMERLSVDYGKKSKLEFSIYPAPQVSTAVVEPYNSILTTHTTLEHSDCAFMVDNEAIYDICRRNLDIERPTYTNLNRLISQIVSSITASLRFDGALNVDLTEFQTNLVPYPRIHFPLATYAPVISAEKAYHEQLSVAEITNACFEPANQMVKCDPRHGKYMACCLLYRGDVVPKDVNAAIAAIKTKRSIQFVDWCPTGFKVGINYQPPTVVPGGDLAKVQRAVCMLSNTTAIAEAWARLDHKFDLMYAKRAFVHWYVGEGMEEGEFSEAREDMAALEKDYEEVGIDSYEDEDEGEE
# Chain of SW480 colon carcinoma cells lysate proteins (Homo sapiens, UniProt Q92598) (Q92598 whole entry): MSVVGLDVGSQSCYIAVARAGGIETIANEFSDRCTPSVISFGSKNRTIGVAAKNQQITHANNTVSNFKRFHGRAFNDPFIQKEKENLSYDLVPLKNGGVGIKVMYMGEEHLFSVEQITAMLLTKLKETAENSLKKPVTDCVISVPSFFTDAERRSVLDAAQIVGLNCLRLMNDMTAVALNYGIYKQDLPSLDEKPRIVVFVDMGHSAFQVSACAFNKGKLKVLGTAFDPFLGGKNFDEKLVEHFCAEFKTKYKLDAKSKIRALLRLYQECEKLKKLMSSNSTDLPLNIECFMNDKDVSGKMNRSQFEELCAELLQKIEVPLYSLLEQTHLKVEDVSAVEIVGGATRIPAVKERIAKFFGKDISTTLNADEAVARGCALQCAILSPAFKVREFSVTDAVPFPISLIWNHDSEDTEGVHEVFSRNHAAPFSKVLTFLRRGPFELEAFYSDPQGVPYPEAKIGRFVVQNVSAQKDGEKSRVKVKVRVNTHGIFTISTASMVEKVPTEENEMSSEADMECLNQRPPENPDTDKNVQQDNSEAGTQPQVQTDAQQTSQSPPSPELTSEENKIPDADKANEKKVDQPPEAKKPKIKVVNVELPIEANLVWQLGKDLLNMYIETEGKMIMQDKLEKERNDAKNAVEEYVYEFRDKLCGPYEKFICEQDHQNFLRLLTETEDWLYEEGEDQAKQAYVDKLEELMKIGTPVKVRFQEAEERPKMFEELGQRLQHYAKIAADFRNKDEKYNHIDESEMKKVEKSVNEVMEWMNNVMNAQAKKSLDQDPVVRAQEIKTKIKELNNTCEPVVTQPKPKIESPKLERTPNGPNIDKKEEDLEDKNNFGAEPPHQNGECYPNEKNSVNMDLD
compound,measurement,setting,value
C[C@H](Oc1cc(-c2cnn(C3CCNCC3)c2)cnc1N)c1c(Cl)ccc(F)c1Cl [(5)-crizotinib],AvgP,[1],0.4697
same,SC.Exp. 1-1,[1],7
same,SC.Exp. 1-2,[1],5
same,SC.Exp. 2-1,[1],0
same,SC.Exp. 2-2,[1],0
same,Sum (SC.Exp.),[1],12
same,AvgP,[2],0
same,SC.Exp. 1-1,[2],22
same,SC.Exp. 1-2,[2],20
same,SC.Exp. 2-1,[2],14
same,SC.Exp. 2-2,[2],12
same,SC.Exp. Sum,[2],68
same,AvgP,[3],0.3864
same,SC.Exp. 1-1,[3],2
same,SC.Exp. 1-2,[3],3
same,SC.Exp. 2-1,[3],0
same,SC.Exp. 2-2,[3],0
same,Sum (SC.Exp.),[3],5
same,AvgP,[4],0.2923
same,SC.Exp. 1-1,[4],4
same,SC.Exp. 1-2,[4],4
same,SC.Exp. 2-1,[4],0
same,SC.Exp. 2-2,[4],0
same,Sum (SC.Exp.),[4],8
same,AvgP,[5],0.1845
same,SC.Exp. 1-1,[5],0
same,SC.Exp. 1-2,[5],2
same,SC.Exp. 2-1,[5],0
same,SC.Exp. 2-2,[5],0
same,Sum (SC.Exp.),[5],2
same,AvgP,[6],0.4614
same,SC.Exp. 1-1,[6],5
same,SC.Exp. 1-2,[6],4
same,SC.Exp. 2-1,[6],0
same,SC.Exp. 2-2,[6],0
same,Sum (SC.Exp.),[6],9
same,AvgP,[7],0.2093
same,SC.Exp. 1-1,[7],1
same,SC.Exp. 1-2,[7],3
same,SC.Exp. 2-1,[7],0
same,SC.Exp. 2-2,[7],0
same,Sum (SC.Exp.),[7],4
same,AvgP,[8],0
same,SC.Exp. 1-1,[8],1
same,SC.Exp. 1-2,[8],1
same,SC.Exp. 2-1,[8],0
same,SC.Exp. 2-2,[8],0
same,SC.Exp. Sum,[8],2
